Biological target: T1, Q46 protein aggregates (Homo sapiens, UniProt P42858, INS38QQQQQQQQQQQQQQQQQQQQQQQQQ)
T1 construct: 33 μM GST-Q46 was incubated with 150 μg/mL thrombin in assay buffer (150 mM NaCl, 50 mM Tris pH 8.0) and 2 mM CaCl2 for 16 hr at 37° C; fused on or other part: GST at the N-terminus
Experiment: Q46 Radioligand Binding Assay (RBA)
Settings: displacement of 10 nM [3H3]MK-3328 from 5 μM Q46 protein aggregates, 60 min at 37° C.
Procedure: Q46 Radioligand Binding Assay
For radioligand binding assays (RBA) GST-Q46 protein was generated based on a previous publication (Scherzinger et al. Cell, Vol. 90, 549-558, Aug. 8, 1997). For experiments 33 μM GST-Q46 was incubated with 150 μg/mL thrombin in assay buffer (150 mM NaCl, 50 mM Tris pH 8.0) and 2 mM CaCl2 for 16 hr at 37° C. Aggregated Q46 was pelleted by centrifugation for 5 min at 13,000 rpm in a bench top centrifuge and re-dissolved in the same volume of assay buffer. Test compounds were prepared by titration in DMSO at 11 concentrations from 33 μM to 1 nM. For the RBA, Q46 protein aggregates and test compounds were pre-incubated in assay buffer for 20 min at room temperature, in 140 μL/well in a 96-well plate (pp, round bottom). Then, ligand was added in 10 μL/well and incubated for 60 min at 37° C. Final assay concentrations were 1 μM to 30 pM test compound, 5 μM Q46 protein (equivalent monomer concentration) and 10 nM ligand [^3H3]MK-3328 (Harrision et al., ACS Med. Chem. Lett., 2 (2011), pp 498-502). Samples were transferred onto GF/B filter plates and washed 2× with 200 μL PBS using a Filtermate Harvester. After drying filter plates for 1 hr at 37° C., the back of the plates was sealed with foil and 30 μL/well scintillation fluid (Packard MicroScint 40) was added, incubated for incubated for 15 min in the dark and counted in a TopCount reader. […] IC50 values were determined with a sigmoidal inhibition model with four variables (top, bottom, slope, IC50) in a global fit using the normalized replicate data.

T1 sequence (P42858 with tags, fused parts or gaps with the stated changes): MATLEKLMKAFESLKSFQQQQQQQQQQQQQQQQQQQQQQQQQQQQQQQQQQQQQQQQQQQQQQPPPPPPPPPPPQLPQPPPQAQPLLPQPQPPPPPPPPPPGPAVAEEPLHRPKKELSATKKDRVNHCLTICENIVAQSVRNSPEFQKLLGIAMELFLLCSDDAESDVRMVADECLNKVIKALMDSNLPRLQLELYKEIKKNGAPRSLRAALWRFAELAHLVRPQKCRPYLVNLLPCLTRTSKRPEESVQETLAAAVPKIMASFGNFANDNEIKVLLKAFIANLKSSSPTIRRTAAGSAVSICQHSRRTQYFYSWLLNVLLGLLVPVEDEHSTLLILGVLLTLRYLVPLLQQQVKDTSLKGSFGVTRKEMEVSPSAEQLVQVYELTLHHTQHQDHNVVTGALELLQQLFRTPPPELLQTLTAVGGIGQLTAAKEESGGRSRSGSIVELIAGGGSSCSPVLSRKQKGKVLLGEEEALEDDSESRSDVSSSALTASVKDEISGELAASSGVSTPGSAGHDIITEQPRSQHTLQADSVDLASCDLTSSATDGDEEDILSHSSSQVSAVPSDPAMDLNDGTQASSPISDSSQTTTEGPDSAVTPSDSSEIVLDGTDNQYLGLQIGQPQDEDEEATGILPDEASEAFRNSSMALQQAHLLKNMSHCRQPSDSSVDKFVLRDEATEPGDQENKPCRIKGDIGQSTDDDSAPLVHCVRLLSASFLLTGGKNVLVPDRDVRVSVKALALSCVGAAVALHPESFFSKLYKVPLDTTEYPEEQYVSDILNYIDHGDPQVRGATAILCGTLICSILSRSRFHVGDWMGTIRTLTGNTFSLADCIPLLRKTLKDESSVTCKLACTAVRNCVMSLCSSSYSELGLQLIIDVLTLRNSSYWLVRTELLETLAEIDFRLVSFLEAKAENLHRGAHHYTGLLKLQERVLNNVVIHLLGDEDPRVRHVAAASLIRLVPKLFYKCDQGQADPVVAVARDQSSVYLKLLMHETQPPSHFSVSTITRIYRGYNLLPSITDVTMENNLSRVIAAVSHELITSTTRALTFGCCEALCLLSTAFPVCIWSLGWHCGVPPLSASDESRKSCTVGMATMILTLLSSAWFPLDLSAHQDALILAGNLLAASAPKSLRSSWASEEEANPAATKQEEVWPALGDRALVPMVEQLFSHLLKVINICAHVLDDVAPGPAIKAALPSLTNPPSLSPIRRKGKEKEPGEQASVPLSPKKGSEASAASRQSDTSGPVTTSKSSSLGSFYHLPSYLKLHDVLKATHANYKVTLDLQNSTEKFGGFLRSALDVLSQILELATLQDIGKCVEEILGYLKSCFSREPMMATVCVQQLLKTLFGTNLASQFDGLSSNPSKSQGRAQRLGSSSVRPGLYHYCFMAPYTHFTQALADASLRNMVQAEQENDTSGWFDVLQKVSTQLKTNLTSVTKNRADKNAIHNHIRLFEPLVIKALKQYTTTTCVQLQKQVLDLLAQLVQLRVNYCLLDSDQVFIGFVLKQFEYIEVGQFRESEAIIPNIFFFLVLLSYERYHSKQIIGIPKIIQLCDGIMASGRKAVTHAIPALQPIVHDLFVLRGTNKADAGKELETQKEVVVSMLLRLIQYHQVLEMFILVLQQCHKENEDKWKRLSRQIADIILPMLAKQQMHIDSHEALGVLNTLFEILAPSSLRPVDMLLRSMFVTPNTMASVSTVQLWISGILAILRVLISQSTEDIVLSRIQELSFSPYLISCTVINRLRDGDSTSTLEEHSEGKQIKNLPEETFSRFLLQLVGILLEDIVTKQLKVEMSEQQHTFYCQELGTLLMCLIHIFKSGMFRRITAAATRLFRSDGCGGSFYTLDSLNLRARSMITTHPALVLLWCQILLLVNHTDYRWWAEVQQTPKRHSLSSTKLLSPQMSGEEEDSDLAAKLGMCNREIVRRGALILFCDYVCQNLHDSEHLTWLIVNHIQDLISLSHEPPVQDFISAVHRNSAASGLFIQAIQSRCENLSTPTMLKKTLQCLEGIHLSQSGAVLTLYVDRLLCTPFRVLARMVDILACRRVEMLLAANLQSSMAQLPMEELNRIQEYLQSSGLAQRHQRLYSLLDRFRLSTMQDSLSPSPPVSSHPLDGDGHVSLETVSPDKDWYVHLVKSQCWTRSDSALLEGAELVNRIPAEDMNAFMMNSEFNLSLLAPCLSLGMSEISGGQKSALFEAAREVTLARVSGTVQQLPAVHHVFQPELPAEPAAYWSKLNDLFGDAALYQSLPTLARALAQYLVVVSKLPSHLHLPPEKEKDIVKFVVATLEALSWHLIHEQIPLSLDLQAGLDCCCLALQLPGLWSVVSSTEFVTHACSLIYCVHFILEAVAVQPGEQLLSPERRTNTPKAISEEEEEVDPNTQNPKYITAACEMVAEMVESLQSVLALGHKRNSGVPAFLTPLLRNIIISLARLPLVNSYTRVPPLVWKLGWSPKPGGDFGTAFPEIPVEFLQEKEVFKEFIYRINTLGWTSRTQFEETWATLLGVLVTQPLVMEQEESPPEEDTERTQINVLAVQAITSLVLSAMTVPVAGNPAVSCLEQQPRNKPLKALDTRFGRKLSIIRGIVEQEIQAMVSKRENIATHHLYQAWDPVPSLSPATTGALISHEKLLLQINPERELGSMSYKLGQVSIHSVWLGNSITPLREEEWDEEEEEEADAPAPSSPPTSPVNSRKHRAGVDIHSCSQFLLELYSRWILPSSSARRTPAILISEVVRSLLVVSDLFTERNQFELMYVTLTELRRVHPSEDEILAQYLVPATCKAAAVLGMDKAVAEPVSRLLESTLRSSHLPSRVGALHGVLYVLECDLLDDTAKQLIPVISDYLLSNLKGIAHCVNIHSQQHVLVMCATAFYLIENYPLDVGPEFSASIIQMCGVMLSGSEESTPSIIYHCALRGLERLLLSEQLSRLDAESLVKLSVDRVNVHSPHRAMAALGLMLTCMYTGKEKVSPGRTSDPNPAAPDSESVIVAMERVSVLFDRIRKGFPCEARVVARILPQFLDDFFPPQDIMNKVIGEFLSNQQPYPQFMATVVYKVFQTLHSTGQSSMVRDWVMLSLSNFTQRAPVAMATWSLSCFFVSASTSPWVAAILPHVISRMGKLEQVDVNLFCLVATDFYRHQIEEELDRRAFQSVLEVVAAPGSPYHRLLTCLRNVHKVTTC

Row | SMILES | IC50 [µM]
1 | COc1ccc2nc(-c3ncccc3Br)sc2c1 [2-(3-bromopyridin-2-yl)-6-methoxy-1,3-benzothiazole] | < 0.1
2 | Oc1ccc2nc(-c3ccncc3Br)sc2c1 [2-(3-bromopyridin-4-yl)-1,3-benzothiazol-6-ol] | 0.1 to 0.5
3 | FCCOc1ccc2nc(-c3ccncc3Br)sc2c1 [2-(3-bromopyridin-4-yl)-6-(2-fluoroethoxy)-1,3-benzothiazole] | < 0.1
4 | COc1ccc2nc(-c3ccncc3Br)sc2c1 [2-(3-bromopyridin-4-yl)-6-methoxy-1,3-benzothiazole] | < 0.1
5 | COc1ccc2nc(-c3ccncc3F)sc2c1 [2-(3-fluoropyridin-4-yl)-6-methoxy-1,3-benzothiazole] | < 0.1
6 | Cc1cccc(-c2nc3cc(N)ccc3o2)c1 [2-(3-methylphenyl)-1,3-benzoxazol-5-amine] | 0.1 to 0.5
7 | Cc1cccc(-c2nc3cc(N)cnc3o2)c1 [2-(3-methylphenyl)-[1,3]oxazolo[5,4-b]pyridin-6-amine] | > 0.5
8 | COc1ccc2oc(-c3ncccc3C#N)cc2c1 [2-(5-methoxy-1-benzofuran-2-yl)pyridine-3-carbonitrile] | < 0.1
9 | COc1ccc2nc(-c3ccccc3C#N)sc2c1 [2-(6-methoxy-1,3-benzothiazol-2-yl)benzonitrile] | < 0.1
10 | COc1ccc2nc(-c3ncccc3C#N)sc2c1 [2-(6-methoxy-1,3-benzothiazol-2-yl)pyridine-3-carbonitrile] | < 0.1
11 | COc1ccc2nc(-c3ccccc3C#N)oc2c1 [2-(6-methoxy-1,3-benzoxazol-2-yl)benzonitrile] | < 0.1
12 | Nc1ccc2oc(-c3cccnc3)nc2c1 [2-(pyridin-3-yl)-1,3-benzoxazol-5-amine] | > 0.5
13 | COc1ccc2oc(-c3cccc(CN(C)C)c3C#N)cc2c1 [2-[(dimethylamino)methyl]-6-(5-methoxy-1-benzofuran-2-yl)benzonitrile] | 0.1 to 0.5
14 | COc1ccc2oc(-c3cccc(Br)c3C#N)cc2c1 [2-bromo-6-(5-methoxy-1-benzofuran-2-yl)benzonitrile] | < 0.1
15 | COc1ncc2cc(-c3ccccc3C#N)oc2n1 [2-{2-methoxyfuro[2,3-d]pyrimidin-6-yl}benzonitrile] | < 0.1
16 | N#Cc1ccccc1-c1nc2cc3c(cc2o1)OCO3 [2-{4,6,10-trioxa-12-azatricyclo[7.3.0.0^3,^7]dodeca-1(9),2,7,11-tetraen-11-yl}benzonitrile] | < 0.1
17 | N#Cc1ccccc1-c1cc2cc(Br)cnc2o1 [2-{5-bromofuro[2,3-b]pyridin-2-yl}benzonitrile] | < 0.1
18 | COc1cnc2oc(-c3ccccc3C#N)cc2c1 [2-{5-methoxyfuro[2,3-b]pyridin-2-yl}benzonitrile] | < 0.1
19 | COc1cc2cc(-c3ccccc3C#N)oc2cn1 [2-{5-methoxyfuro[2,3-c]pyridin-2-yl}benzonitrile] | < 0.1
20 | N#CC1=C(c2cc3cc(O)ccc3o2)N2CCN=C2S1 [3-(5-hydroxy-1-benzofuran-2-yl)-5H,6H-imidazo[2,1-b][1,3]thiazole-2-carbonitrile] | < 0.1
21 | COc1ccc2oc(C3=C(C#N)SC4=NCCN43)cc2c1 [3-(5-methoxy-1-benzofuran-2-yl)-5H,6H-imidazo[2,1-b][1,3]thiazole-2-carbonitrile] | < 0.1
22 | COc1ccc2nc(-c3cnccc3C#N)sc2c1 [3-(6-methoxy-1,3-benzothiazol-2-yl)pyridine-4-carbonitrile] | < 0.1
23 | C#Cc1cnccc1-c1cc2cc(OC)ccc2o1 [3-ethynyl-4-(5-methoxy-1-benzofuran-2-yl)pyridine] | < 0.1
24 | COc1ccc2oc(-c3ccncc3I)cc2c1 [3-iodo-4-(5-methoxy-1-benzofuran-2-yl)pyridine] | 0.1 to 0.5

Row | SMILES | IC50 [µM]
25 | N#Cc1cnccc1-c1nc2ccccc2s1 [4-(1,3-benzothiazol-2-yl)pyridine-3-carbonitrile] | > 0.5
26 | COc1ccc2oc(-c3ccncc3)c(Br)c2c1 [4-(3-bromo-5-methoxy-1-benzofuran-2-yl)pyridine] | < 0.1
27 | N#Cc1cnccc1-c1cc2cc(O)ccc2o1 [4-(5-hydroxy-1-benzofuran-2-yl)pyridine-3-carbonitrile] | < 0.1
28 | COc1ccc2sc(-c3ccncc3C#N)nc2c1 [4-(5-methoxy-1,3-benzothiazol-2-yl)pyridine-3-carbonitrile] | 0.1 to 0.5
29 | COc1ccc2oc(-c3cccc4[nH]ncc34)cc2c1 [4-(5-methoxy-1-benzofuran-2-yl)-1H-indazole] | < 0.1
30 | COc1ccc2oc(-c3ccncc3C)cc2c1 [4-(5-methoxy-1-benzofuran-2-yl)-3-methylpyridine] | 0.1 to 0.5
31 | COc1ccc2oc(-c3ccncc3C#N)cc2c1 [4-(5-methoxy-1-benzofuran-2-yl)pyridine-3-carbonitrile] | < 0.1
32 | COc1ccc2oc(-c3ccncc3C#N)c(C)c2c1 [4-(5-methoxy-3-methyl-1-benzofuran-2-yl)pyridine-3-carbonitrile] | < 0.1
33 | CNc1cnccc1-c1nc2ccc(OC)cc2s1 [4-(6-methoxy-1,3-benzothiazol-2-yl)-N-methylpyridin-3-amine] | 0.1 to 0.5
34 | COc1ccc2nc(-c3ccc(C#N)cc3)sc2c1 [4-(6-methoxy-1,3-benzothiazol-2-yl)benzonitrile] | < 0.1
35 | COc1ccc2nc(-c3ccnc(C#N)c3)sc2c1 [4-(6-methoxy-1,3-benzothiazol-2-yl)pyridine-2-carbonitrile] | < 0.1
36 | COc1ccc2nc(-c3ccncc3C#N)sc2c1 [4-(6-methoxy-1,3-benzothiazol-2-yl)pyridine-3-carbonitrile] | 0.1 to 0.5
37 | COc1ccc2nc(-c3ccncc3C#N)oc2c1 [4-(6-methoxy-1,3-benzoxazol-2-yl)pyridine-3-carbonitrile] | < 0.1
38 | COc1ccc2nc(-c3ccncc3C#N)[nH]c2c1 [4-(6-methoxy-1H-1,3-benzodiazol-2-yl)pyridine-3-carbonitrile] | > 0.5
39 | COc1ccc2cc(-c3ccncc3C#N)ccc2c1 [4-(6-methoxynaphthalen-2-yl)pyridine-3-carbonitrile] | 0.1 to 0.5
40 | COc1ccc2nc(-c3ccncc3C#N)ccc2c1 [4-(6-methoxyquinolin-2-yl)pyridine-3-carbonitrile] | 0.1 to 0.5
41 | N#Cc1cnccc1-c1cc2cc(OCCF)ccc2o1 [4-[5-(2-fluoroethoxy)-1-benzofuran-2-yl]pyridine-3-carbonitrile] | < 0.1
42 | N#Cc1cnccc1-c1cc2cc(OCCO)ccc2o1 [4-[5-(2-hydroxyethoxy)-1-benzofuran-2-yl]pyridine-3-carbonitrile] | 0.1 to 0.5
43 | COCCOc1ccc2oc(-c3ccncc3C#N)cc2c1 [4-[5-(2-methoxyethoxy)-1-benzofuran-2-yl]pyridine-3-carbonitrile] | < 0.1
44 | COCOc1ccc2oc(-c3cn(C)nc3C#N)cc2c1 [4-[5-(methoxymethoxy)-1-benzofuran-2-yl]-1-methyl-1H-pyrazole-3-carbonitrile] | < 0.1
45 | COCOc1ccc2oc(-c3ccncc3C#N)cc2c1 [4-[5-(methoxymethoxy)-1-benzofuran-2-yl]pyridine-3-carbonitrile] | < 0.1
46 | N#Cc1cnccc1-c1nc2ccc(OCCF)cc2s1 [4-[6-(2-fluoroethoxy)-1,3-benzothiazol-2-yl]pyridine-3-carbonitrile] | < 0.1
47 | CN(C)c1ccc2nc(-c3ccncc3C#N)sc2c1 [4-[6-(dimethylamino)-1,3-benzothiazol-2-yl]pyridine-3-carbonitrile] | < 0.1
